Read-outs that look alike come from different tables or passages of the source.

By IC50 is commonly meant the midpoint of a concentration-inhibition curve. The inhibition is the drop in the measured response relative to a control, in per cent. A higher inhibition goes with a response far below the control.

The nature of data set [1]: In vitro viability test (MTT) on non-cancerous Vero cell lines. Conditions: African green monkey, Vero cells (non-cancerous), non-cancerous model, read-out: Cytotoxicity Against Vero Cell Lines (IC50). The class given is cell-based. The source says:
(§1) An in-vitro viability test was used to investigate the safety patterns of the tested compounds at different concentrations. The Vero cell lines were used as a non-cancerous model to investigate the safety of the targeted compounds. […] Such values are very high in comparison to the corresponding values on the cancer cell lines, which reflect the high in vitro safety profiles of the tested members towards the examined non-cancerous cell lines (Table 2).

Data set [2] concerns HepG2. Nature of the data set: In vitro anti-proliferative activity (MTT assay), HepG2. Conditions: for Selectivity index (SI) (HepG2): cytotoxicity against Vero cells/cytotoxicity against HepG2. (Formazan colour is commonly taken as a measure of viable cells.)
For data set [3], the system named is caspase-8. Nature of the data set: Caspase-8 expression level in treated HCT-116 cells (qRT-PCR). Conditions: HCT-116, 5.4 µM, 24 h.
For data set [4], the system named is HCT-116. Nature of the data set: In vitro anti-proliferative activity (MTT assay), HCT-116. Conditions: for Selectivity index (SI) (HCT-116): Cytotoxicity against Vero cells/cytotoxicity against HCT-116.
Data set [5] relates to Bax. Kind of data set: Bax expression level in treated HCT-116 cells (qRT-PCR). Conditions: HCT-116, 5.4 µM, 24 h. On the technique in general: In qPCR the cycle at which signal appears reflects the starting amount.
Data set [6] concerns the target human VEGFR-2 (Homo sapiens, UniProt P35968). Kind of data set: In vitro VEGFR-2 enzyme inhibition assay (Human VEGFR-2 ELISA kit). A general note: ELISA stands for enzyme-linked immunosorbent assay.
The test system of data set [7] is IL-6. Kind of data set: IL-6 level in treated HCT-116 cells (qRT-PCR). Type of data set: cell-based, human. Conditions: HCT-116, 5.4 µM, 24 h.
Data set [8] deals with TNF-α. Nature of the data set: TNF-α level in treated HCT-116 cells (qRT-PCR). Conditions: Homo sapiens; HCT-116, 5.4 µM, 24 h; control 82.47. The class given is cell-based.
Data set [9] relates to Bcl-2. Nature of the data set: Bcl-2 expression level in treated HCT-116 cells (qRT-PCR). Conditions: HCT-116, 5.4 µM, 24 h.
Data set [10] deals with HCT-116 cells. Kind of data set: Flow cytometry analysis for cell cycle (PI staining). The class given is cell-based, human. Conditions: HCT-116, 5.4 µM, 24 h.
The subject of data set [11] is HCT-116 cells. Nature of the data set: Flow cytometry analysis for apoptosis (Annexin V and PI double staining). Type of data set: cell-based, human. Conditions: HCT-116, 5.4 µM, 24 h.
Data set [12] concerns Vero cell lines. Nature of the data set: In vitro viability test (MTT) on non-cancerous Vero cell lines. The class given is cell-based. Conditions: non-cancerous model, read-out: Cytotoxicity Against Vero Cell Lines (IC50).
Description: as §1

[13] abbreviates: Homo sapiens, HepG2, read-out: Cytotoxicity IC50 HepG2.
The mark [14] stands for this setting: Homo sapiens, HCT-116, read-out: Cytotoxicity IC50 HCT-116.

Chain of human VEGFR-2 (P35968 20-1356): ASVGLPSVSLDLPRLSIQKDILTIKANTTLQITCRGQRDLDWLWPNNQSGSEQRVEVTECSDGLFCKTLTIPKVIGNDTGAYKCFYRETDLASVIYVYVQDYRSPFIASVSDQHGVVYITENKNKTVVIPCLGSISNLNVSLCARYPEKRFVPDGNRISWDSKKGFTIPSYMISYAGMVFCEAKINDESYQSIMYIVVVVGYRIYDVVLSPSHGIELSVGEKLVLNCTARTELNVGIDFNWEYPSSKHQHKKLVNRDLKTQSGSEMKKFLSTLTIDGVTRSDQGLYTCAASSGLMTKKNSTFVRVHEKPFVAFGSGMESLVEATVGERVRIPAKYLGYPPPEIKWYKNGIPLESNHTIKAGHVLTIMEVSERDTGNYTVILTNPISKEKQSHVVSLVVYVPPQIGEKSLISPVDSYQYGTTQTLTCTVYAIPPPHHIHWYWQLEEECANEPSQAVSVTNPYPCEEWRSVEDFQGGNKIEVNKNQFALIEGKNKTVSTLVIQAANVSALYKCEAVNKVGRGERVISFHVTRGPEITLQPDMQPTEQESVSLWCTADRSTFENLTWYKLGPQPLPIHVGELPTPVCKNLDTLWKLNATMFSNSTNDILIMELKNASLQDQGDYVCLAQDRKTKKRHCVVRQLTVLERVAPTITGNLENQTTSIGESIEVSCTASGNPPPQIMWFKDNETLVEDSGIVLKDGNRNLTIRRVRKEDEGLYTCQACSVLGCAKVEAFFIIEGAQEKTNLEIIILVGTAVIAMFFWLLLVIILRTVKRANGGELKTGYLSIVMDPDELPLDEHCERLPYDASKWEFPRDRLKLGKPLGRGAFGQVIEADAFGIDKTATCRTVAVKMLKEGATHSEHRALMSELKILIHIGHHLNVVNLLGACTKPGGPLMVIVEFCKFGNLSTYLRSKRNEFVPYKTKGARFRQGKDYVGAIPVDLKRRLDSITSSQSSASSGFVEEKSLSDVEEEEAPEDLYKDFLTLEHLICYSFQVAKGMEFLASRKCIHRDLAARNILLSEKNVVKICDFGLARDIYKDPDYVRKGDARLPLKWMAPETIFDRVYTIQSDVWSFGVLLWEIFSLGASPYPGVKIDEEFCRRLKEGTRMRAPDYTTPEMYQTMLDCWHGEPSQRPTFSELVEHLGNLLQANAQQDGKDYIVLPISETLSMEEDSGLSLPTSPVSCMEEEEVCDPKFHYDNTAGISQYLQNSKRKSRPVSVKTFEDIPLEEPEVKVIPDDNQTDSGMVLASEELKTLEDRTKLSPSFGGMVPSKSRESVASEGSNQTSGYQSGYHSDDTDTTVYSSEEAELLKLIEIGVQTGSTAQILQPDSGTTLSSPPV

Take `CN(C)c1ccc(/C=C/C=N/NC(=O)c2ccc(NC(=O)c3cccnc3)cc2)cc1` [Compound 8, N-(4-(2-((1E,2E)-3-(4-(Dimethylamino)phenyl)allylidene)hydrazine-1-carbonyl)phenyl)nicotinamide]: the IC50 in data set [1] turned out to be 85.2 µM; in [2] (setting [13]), 7.1 ± 0.03 µM; in data set [4] (setting [14]), 5.4 ± 0.02 µM; in data set [6], 0.077 ± 0.00425 µM. For the same molecule, the “Selectivity index (SI) (HepG2)” value in [2] amounted to 12.01. Also, the “Increase in caspase-8 level vs control cells” value in [3] worked out at 9.4 fold. The same molecule displayed a Caspase-8 expression level in data set [3] (control 50.317) of 472.3 pg/mL. Also, in data set [4], the “Selectivity index (SI) (HCT-116)” value was determined as 15.79. Also, in [5], the “Increase in Bax level vs control cells” value turned out to be 9.2 fold. Also, in [5] (control 42.19), the Bax expression level stood at 387.26 pg/mL. Also, the “Effect on the level of IL-6 (in words)” value in data set [7] is “non-significant reduction”. In addition, the inhibition at 5.4 µM in [7] (Homo sapiens, control 93.15) came to 94.1%; in [8], 92.4%. The “Decrease in Bcl-2 level vs control cells” value in data set [9] is reported as 3 fold. The same molecule displayed a Bcl-2 expression level in data set [9] (control 5.603) of 1.844 pg/mL. The “Augmentation of G0–G1 phase vs control” value in data set [10] is reported as 1.42 fold. The “Decline of cell population at G2/M phase vs control” value in [10] stood at 2.11 fold. In addition, the “Cell Cycle Distribution %G2-M” value in [10] (control 27.29) is recorded as 12.91%. For the same molecule, the “Cell Cycle Distribution % S” value in data set [10] (control 33.75) worked out at 31.47%. Further, the “Cell Cycle Distribution %G0-G1” value in data set [10] (control 38.96) amounted to 55.62%. Besides, the “Cell Cycle Distribution %Pre-G1” value in [10] (control printed 19.82) stood at 3.05%. Further, in data set [11], the “Increase in total apoptosis vs control” value turned out to be 6.5 fold. The molecule further had a Necrosis in [11] (control 0.62) of 1.85%. In addition, the “Apoptosis Early” value in data set [11] (control 0.7) came to 3.74%. In addition, in data set [11] (control 1.73), the “Apoptosis Late” value amounted to 14.23%. For the same molecule, the “Apoptosis Total” value in [11] (control 3.05) was found to be 19.82%.

On to `O=C(N/N=C/c1ccc(Cl)cc1Cl)c1ccc(NC(=O)c2cccnc2)cc1` [Compound 6, (E)-N-(4-(2-(2,4-Dichlorobenzylidene)hydrazine-1-carbonyl)phenyl)-nicotinamide], for which the IC50 came out at 84.7 µM in [1], 16.5 ± 0.057 µM in data set [2] (setting [13]), 17.8 ± 0.059 µM in data set [4] (setting [14]) and 0.172 ± 0.0102 µM in data set [6]. The “Selectivity index (SI) (HepG2)” value in data set [2] was determined as 5.13. Moreover, the “Selectivity index (SI) (HCT-116)” value in data set [4] is 4.76.

In the case of `COc1ccc(/C=N/NC(=O)c2ccc(NC(=O)c3cccnc3)cc2)cc1OC` [Compound 7, (E)-N-(4-(2-(3,4-Dimethoxybenzylidene)hydrazine-1-carbonyl)phenyl)-nicotinamide], the IC50 amounted to 128 µM in [1], 18.8 ± 0.061 µM in data set [2] (setting [13]), 19.2 ± 0.062 µM in data set [4] (setting [14]) and 0.113 ± 0.00723 µM in [6]. In addition, the “Selectivity index (SI) (HepG2)” value in [2] was determined as 6.80. In addition, in data set [4], the “Selectivity index (SI) (HCT-116)” value was found to be 6.66.

Turning to `CNC(=O)c1cc(Oc2ccc(NC(=O)Nc3ccc(Cl)c(C(F)(F)F)c3)cc2)ccn1` [Sorafenib, sorafenib, reference compound], the values for the IC50 in data set [2] (setting [13]) and in data set [4] (setting [14]) were 7.4 ± 0.235 µM and 9.3 ± 0.201 µM, respectively.

On to “(E)-N-(4-(1-(2-(2,6-Dinitrophenyl)hydrazono)ethyl)phenyl)nicotinamide [Compound 12]”, for which the IC50 is 95.4 µM in data set [12]; 17.5 ± 0.058 µM in data set [2] (read-out: Cytotoxicity IC50 HepG2, MTT, mean ± S.D. of three separate experiments); 18.2 ± 0.06 µM in data set [4] (read-out: Cytotoxicity IC50 HCT-116, MTT, mean ± S.D. of three separate experiments); 0.115 ± 0.00733 µM in data set [6] (read-out: VEGFR-2 IC50, mean ± S.D. of three separate experiments). Besides, in data set [2], the “Selectivity index (SI) (HepG2)” value was 5.45. The “Selectivity index (SI) (HCT-116)” value in data set [4] was found to be 5.24.

For the molecule `CC(=NNC(N)=S)c1ccc(NC(=O)c2cccnc2)cc1` [Compound 11, N-(4-(1-(2-Carbamothioylhydrazono)ethyl)phenyl)nicotinamide], the half-inhibitory concentration (IC50) in data set [1] turned out to be 105 µM; in [2] (setting [13]), 20.3 ± 0.064 µM; in data set [4] (setting [14]) it was 25.07 ± 0.07 µM; in [6], 0.0834 ± 0.00553 µM. In addition, the “Selectivity index (SI) (HepG2)” value in [2] was 5.19. Further, in [4], the “Selectivity index (SI) (HCT-116)” value is given as 4.20.
